Data published in US9315517B2, “Imidazol-piperidinyl derivatives as modulators of kinase activity” (Merck Patent GmbH, priority 2012, dated 2016).

What was measured:
[1] = molecular target: T1, P70S6K (T412E mutant, Millipore) (Homo sapiens, UniProt P23443, T412E); assay: P70S6K enzyme assay; format: biochemical; conditions: enzyme inhibition; 24 μM ATP, 90 min at 25° C., Caliper mobility shift
T1 construct: purchased Millipore
Protocol: (§1) The IC50 values reported for the compounds in the Experimental section were derived from the following protocol for the p70S6K and AKT enzyme assays.
P70S6K inhibitor compounds were diluted and plated in 96 well plates. A reaction mixture including the following components was then added to the compound plate to initiate the enzyme reaction; P70S6K (3 nM, T412E mutant, Millipore) was mixed with 24 μM ATP in an assay buffer containing 100 mM Hepes (pH 7.5), 5 mM MgCl2, 1 mM DTT, 0.015% Brij and 1 μM of the substrate peptide FITC-AHA-AKRRRLSSLRA-OH (derived from the S6 ribosomal protein sequence, FITC=fluorescein isothiocyanate, AHA=6-aminohexanoic acid). The reaction was incubated for 90 min at 25° C., before the addition of 10 mM EDTA to stop the reaction. The proportion of substrate and product (phosphorylated) peptide was analysed on a Caliper Life Sciences Lab Chip 3000, using a pressure of −1.4 psi, and upstream and downstream voltages of −3000 and −700 respectively. Product peaks were resolved before substrate peaks on the resulting chromatograms.

His-AKT (Full Length) = molecular target: T2, His-AKT (Full Length) (Homo sapiens, UniProt P31749); assay: AKT enzyme assay; format: biochemical; conditions: enzyme inhibition; 160 uM ATP, 90 min at 25° C., Caliper mobility shift
T2 construct: 0.1 ng/μl His-AKT (Full Length); His; purchased Invitrogen P2999
Protocol: as §1
A TTP Mosquito liquid handling instrument was used to place 125 nl of the appropriate concentration of inhibitor in 100% DMSO (for a dose response curve calculation) into each well of a 384-well plate. To this reaction components were added to a final volume of 12.5 μl: • 0.1 ng/μl His-AKT (Full Length), (Invitrogen, Part # P2999, Lot # 641228C). • 160 uM ATP (Fluke, 02055) • 1 mM DTT (Sigma, D0632) • 1 mM MgCl2 (Sigma, M1028) • 1 μM substrate peptide (sequence FITC-AHA-GRPRTSSFAEG-NH2), synthesized by Tufts Peptide Synthesis service. • 100 mM HEPES pH 7.5 (Calbiochem, 391338) • 0.015% Brij-35 (Sigma, B4184)
The reaction was incubated for 90 min at 25° C., and then stopped by the addition of 70 μl of Stop buffer (100 mM HEPES pH 7.5, 0.015% Brij-35, 10 mM EDTA (Sigma, E7889)).
The plate was read on a Caliper LC 3000 in an Off-Chip mobility shift assay format, using the following parameters for a 12-sipper chip: screening pressure −2.3 psi, upstream voltage −500, and downstream voltage −3000. These conditions caused unphosphorylated substrate and phosphorylated product peptide to resolve as separate peaks allowing direct measurement of percentage of conversion of substrate to product. The percent conversion was plotted against concentration of inhibitor to produce a sigmoidal dose response curve, from which an IC50 was calculated.

T1 sequence (P23443 whole entry T412E): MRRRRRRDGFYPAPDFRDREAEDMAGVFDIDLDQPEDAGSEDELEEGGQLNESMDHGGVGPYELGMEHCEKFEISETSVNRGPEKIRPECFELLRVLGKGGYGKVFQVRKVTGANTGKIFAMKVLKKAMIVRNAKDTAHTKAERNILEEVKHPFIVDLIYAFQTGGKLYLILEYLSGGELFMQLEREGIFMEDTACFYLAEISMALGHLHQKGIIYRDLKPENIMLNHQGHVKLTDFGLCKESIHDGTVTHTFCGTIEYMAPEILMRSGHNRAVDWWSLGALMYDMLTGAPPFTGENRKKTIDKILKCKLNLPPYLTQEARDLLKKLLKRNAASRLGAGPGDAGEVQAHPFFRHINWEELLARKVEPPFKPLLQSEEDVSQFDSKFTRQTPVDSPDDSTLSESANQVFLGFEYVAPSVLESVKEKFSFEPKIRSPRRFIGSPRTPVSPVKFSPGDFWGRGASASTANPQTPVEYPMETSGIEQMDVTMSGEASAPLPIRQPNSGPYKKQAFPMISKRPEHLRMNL
T2 sequence (P31749 whole entry): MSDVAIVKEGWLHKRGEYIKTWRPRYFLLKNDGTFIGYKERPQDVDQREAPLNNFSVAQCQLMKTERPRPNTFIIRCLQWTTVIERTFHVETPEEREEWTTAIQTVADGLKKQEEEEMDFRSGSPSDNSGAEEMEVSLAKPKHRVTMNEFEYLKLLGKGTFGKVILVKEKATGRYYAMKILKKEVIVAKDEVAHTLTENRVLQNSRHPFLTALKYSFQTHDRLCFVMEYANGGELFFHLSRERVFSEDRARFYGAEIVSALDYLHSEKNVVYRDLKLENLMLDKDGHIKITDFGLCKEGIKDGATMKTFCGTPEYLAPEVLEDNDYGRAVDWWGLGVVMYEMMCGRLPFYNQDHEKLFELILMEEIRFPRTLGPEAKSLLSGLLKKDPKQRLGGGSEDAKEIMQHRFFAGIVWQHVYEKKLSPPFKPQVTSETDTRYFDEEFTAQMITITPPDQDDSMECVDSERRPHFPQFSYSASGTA

| Compound | IC50 [1] [nM] | IC50 (His-AKT (Full Length)) [nM] |
| --- | --- | --- |
| CN(C)CCn1cc(-c2cccc(Cl)c2)nc1C1CCN(c2ncnc3c2NC(=O)CN3)CC1 [Compound A47, 4-{4-[4-(3-ChloroPhenyl)-1-(2-dimethylamin-1-yl-ethyl)-1H-imidazol-2-yl]-piperidin-1-yl}-7,8-dihydro-5H-pteridin-6-one] | 101 to 500 | 101 to 500 |
| CN(C)CCn1cc(-c2cccnc2)nc1C1CCN(c2ncnc3c2NC(=O)CN3)CC1 [Compound A48, 4-{4-[4-(Pyridin-3-yl)-1-(2-dimethylamin-1-yl-ethyl)-1H-imidazol-2-yl]-piperidin-1-yl}-7,8-dihydro-5H-pteridin-6-one] | > 1000 | > 1000 |
| CN(C)CCn1cc(-c2ccc(F)cc2)nc1C1CCN(c2ncnc3c2NC(=O)CN3)CC1 [Compound A50, 4-{4-[4-(4-FluoroPhenyl)-1-(2-dimethylamin-1-yl-ethyl)-1H-imidazol-2-yl]-piperidin-1-yl}-7,8-dihydro-5H-pteridin-6-one] | 101 to 500 | 501 to 1000 |
| COc1cccc(-c2cn(CCN(C)C)c(C3CCN(c4ncnc5c4NC(=O)CN5)CC3)n2)c1 [Compound A51, 4-{4-[4-(3-Methoxy-phenyl)-1-(2-dimethylamin-1-yl-ethyl)-1H-imidazol-2-yl]-piperidin-1-yl}-7,8-dihydro-5H-pteridin-6-one] | 101 to 500 | 501 to 1000 |
| Cc1cccc(-c2cn(CCN(C)C)c(C3CCN(c4ncnc5c4NC(=O)CN5)CC3)n2)c1 [Compound A54, 4-{4-[4-(3-MethylPhenyl)-1-(2-dimethylamin-1-yl-ethyl)-1H-imidazol-2-yl]-piperidin-1-yl}-7,8-dihydro-5H-pteridin-6-one] | 26 to 100 | 101 to 500 |
| CN(C)CCn1cc(C(F)(F)F)nc1C1CCN(c2ncnc3c2NC(=O)CN3)CC1 [Compound A55, 4-{4-[4-(4-trifouromethyl)-1-(2-dimethylamino-1-yl-ethyl)-1H-imidazol-2-yl]-piperidin-1-yl}-7,8-dihydro-5H-pteridin-6-one] | > 1000 | > 1000 |
| O=C1CNc2ncnc(N3CCC(c4nc(-c5cccc(Cl)c5)cn4CCN4CCCC4)CC3)c2N1 [Compound A57, 4-{4-[4-(3-ChloroPhenyl)-1-(2-pyrrolidin-1-yl-ethyl)-1H-imidazol-2-yl]-piperidin-1-yl}-7,8-dihydro-5H-pteridin-6-one] | 26 to 100 | 26 to 100 |
| COc1cccc(-c2cn(CCN3CCCC3)c(C3CCN(c4ncnc5c4NC(=O)CN5)CC3)n2)c1 [Compound A60, 4-{4-[4-(3-MethoxyPhenyl)-1-(2-pyrrolidin-1-yl-ethyl)-1H-imidazol-2-yl]-piperidin-1-yl}-7,8-dihydro-5H-pteridin-6-one] | 101 to 500 | 101 to 500 |
| Cc1cccc(-c2cn(CCN3CCCC3)c(C3CCN(c4ncnc5c4NC(=O)CN5)CC3)n2)c1 [Compound A62, 4-{4-[4-(3-MethylPhenyl)-1-(2-pyrrolidin-1-yl-ethyl)-1H-imidazol-2-yl]-piperidin-1-yl}-7,8-dihydro-5H-pteridin-6-one] | 26 to 100 | 26 to 100 |

Now from value to compound:

| IC50 [1] [nM] | IC50 (His-AKT (Full Length)) [nM] | Compound |
| --- | --- | --- |
| 101 to 500 | > 1000 | Cc1ccc(-c2cn(CCN(C)C)c(C3CCN(c4ncnc5c4NC(=O)CN5)CC3)n2)cc1 [Compound A49, 4-{4-[4-(4-MethylPhenyl)-1-(2-dimethylamin-1-yl-ethyl)-1H-imidazol-2-yl]-piperidin-1-yl}-7,8-dihydro-5H-pteridin-6-one] |
| > 1000 | > 1000 | COc1ccc(-c2cn(CCN(C)C)c(C3CCN(c4ncnc5c4NC(=O)CN5)CC3)n2)cc1 [Compound A52, 4-{4-[4-(4-Methoxyl-henyl)-1-(2-dimethylamin-1-yl-ethyl)-1H-imidazol-2-yl]-piperidin-1-yl}-7,8-dihydro-5H-pteridin-6-one] |
| > 1000 | > 1000 | CN(C)CCn1cc(-c2ccccc2)nc1C1CCN(c2ncnc3c2NC(=O)CN3)CC1 [Compound A53, 4-{4-[4-(Phenyl)-1-(2-dimethylamin-1-yl-ethyl)-1H-imidazol-2-yl]-piperidin-1-yl}-7,8-dihydro-5H-pteridin-6-one] |
| 26 to 100 | < 25 | O=C1CNc2ncnc(N3CCC(c4nc(-c5ccc(F)c(F)c5)cn4CCN4CCCC4)CC3)c2N1 [Compound A56, 4-{4-[4-(3,4-DifluoroPhenyl)-1-(2-pyrrolidin-1-yl-ethyl)-1H-imidazol-2-yl]-piperidin-1-yl}-7,8-dihydro-5H-pteridin-6-one] |
| > 1000 | > 1000 | Cc1ccc(-c2cn(CCN3CCCC3)c(C3CCN(c4ncnc5c4NC(=O)CN5)CC3)n2)cc1 [Compound A58, 4-{4-[4-(4-MethylPhenyl)-1-(2-pyrrolidin-1-yl-ethyl)-1H-imidazol-2-yl]-piperidin-1-yl}-7,8-dihydro-5H-pteridin-6-one] |
| 26 to 100 | 101 to 500 | O=C1CNc2ncnc(N3CCC(c4nc(-c5ccc(F)cc5)cn4CCN4CCCC4)CC3)c2N1 [Compound A59, 4-{4-[4-(4-FluoroPhenyl)-1-(2-pyrrolidin-1-yl-ethyl)-1H-imidazol-2-yl]-piperidin-1-yl}-7,8-dihydro-5H-pteridin-6-one] |
| > 1000 | 501 to 1000 | COc1ccc(-c2cn(CCN3CCCC3)c(C3CCN(c4ncnc5c4NC(=O)CN5)CC3)n2)cc1 [Compound A61, 4-{4-[4-(4-MethoxyPhenyl)-1-(2-pyrrolidin-1-yl-ethyl)-1H-imidazol-2-yl]-piperidin-1-yl}-7,8-dihydro-5H-pteridin-6-one] |
| > 1000 | > 1000 | O=C1CNc2ncnc(N3CCC(c4nc(C(F)(F)F)cn4CCN4CCCC4)CC3)c2N1 [Compound A63, 4-{4-[trifluoromethyl-1-(2-pyrrolidin-1-yl-ethyl)-1H-imidazol-2-yl]-piperidin-1-yl}-7,8-dihydro-5H-ptericlin-6-one] |
